According to ChEMBL document CHEMBL1201862, “PubChem BioAssay data set” (2004):
The source made the active and inactive calls.

Columns and labels:
[1] = Luminescence Cell-Based Dose Confirmation HTS to Identify Inhibitors of Platelet Dense Granule Release. [Related pubchem assays: 1663 (Primary HTS), 1678 (Summary of Project)]; format: functional
[2] = viability of uninfected HEp-2 cells – cell-based, HTS, cytotoxicity control for RSV inhibitor project, dose response (AID 2410); format: functional; settings: human respiratory syncytial virus
[3] = biological target: Luciferin 4-monooxygenase (Photinus pyralis, UniProt P08659); assay: inhibition of purified Photinus pyralis luciferase – biochemical, luminescence, dose response (AID 1891)
Chain of Luciferin 4-monooxygenase (P08659 whole entry): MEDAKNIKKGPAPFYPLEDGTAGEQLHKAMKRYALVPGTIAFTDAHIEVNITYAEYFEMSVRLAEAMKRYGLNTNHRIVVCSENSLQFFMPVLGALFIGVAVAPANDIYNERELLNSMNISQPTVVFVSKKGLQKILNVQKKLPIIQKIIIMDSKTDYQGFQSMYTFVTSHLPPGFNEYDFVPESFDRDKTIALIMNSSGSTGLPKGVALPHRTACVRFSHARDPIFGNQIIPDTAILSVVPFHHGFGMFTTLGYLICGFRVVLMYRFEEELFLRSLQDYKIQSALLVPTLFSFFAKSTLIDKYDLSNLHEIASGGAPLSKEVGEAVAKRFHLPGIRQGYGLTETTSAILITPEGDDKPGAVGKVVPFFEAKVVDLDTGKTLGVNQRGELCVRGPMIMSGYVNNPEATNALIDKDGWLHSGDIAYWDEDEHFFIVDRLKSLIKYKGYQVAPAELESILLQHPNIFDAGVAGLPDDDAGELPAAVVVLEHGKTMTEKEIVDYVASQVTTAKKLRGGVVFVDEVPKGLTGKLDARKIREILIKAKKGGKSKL

Streptococcus = assay: GAS UMAA2166 growth inhibition – luminescence, BacTiterGlo, counter-screen for streptokinase expression inhibitor project, dose response (AID 1915); format: functional, organism-based;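 note: potency for reduction of bacterial viability or growth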
Streptokinase A = biological target: T1, Streptokinase A (Streptococcus pyogenes serotype M1, UniProt P10520); assay: viability-normalized secreted streptokinase activity reduction – plasminogen activation absorbance, OD405, dose response (AID 1914); format: functional, Streptococcus pyogenes M1 GAS;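 note: secreted streptokinase activity via plasminogen activation per viability signal from cell pellet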
T1 sequence (P10520 whole entry): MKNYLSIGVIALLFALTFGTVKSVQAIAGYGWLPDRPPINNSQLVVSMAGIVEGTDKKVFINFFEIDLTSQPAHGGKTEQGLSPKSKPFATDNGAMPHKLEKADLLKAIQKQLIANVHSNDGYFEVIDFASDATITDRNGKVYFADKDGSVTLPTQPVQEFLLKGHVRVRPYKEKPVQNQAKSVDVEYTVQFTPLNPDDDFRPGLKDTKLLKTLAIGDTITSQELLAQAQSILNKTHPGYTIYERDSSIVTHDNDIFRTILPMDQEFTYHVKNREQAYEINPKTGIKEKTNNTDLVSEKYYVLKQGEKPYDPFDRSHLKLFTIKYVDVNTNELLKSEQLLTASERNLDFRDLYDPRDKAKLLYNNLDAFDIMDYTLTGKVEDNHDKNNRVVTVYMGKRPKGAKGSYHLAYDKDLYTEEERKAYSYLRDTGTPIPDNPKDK

[4] = tested on: Streptococcus sp. 'group A'; assay: Streptococcus pyogenes SK(-)GAS viability under kanamycin – luminescence, BacTiterGlo, confirmation, counter-screen for streptokinase expression inhibitor project, dose response (AID 1900); format: functional, organism-based
[5] = Luminescence Cell-Based Dose Retest to Confirm Inhibitors of Cancer Stem Cells. [Related pubchem assays (depositor defined):AID2717, AID2721]; format: functional; settings: Homo sapiens
[6] = Luminescence Cell-Based Dose Response HTS to Identify Inhibitors of 5'UTR Stem-Loop Driven Prion Protein mRNA Translation in H4 Neuroglioblastoma Cells. [Related pubchem assays: 1827 (Project Summary), 1813 (Primary HTS)]; format: functional
[7] = alpha-synuclein stem-loop luciferase translation blockers – H4 neuroglioma cells, luminescence, confirmation (AID 1988); format: functional, cell-based
[8] = luciferase reporter signal suppression in cells – H4 neuroglioma cells, luminescence, dose response (AID 1990); format: functional, cell-based
Cytochrome P450 2C19 = Cytochrome P450 2C19 (Homo sapiens, UniProt P33261); assay: Cytochrome panel assay with activity outcomes. Panel member name: p450-cyp2c19 Compounds with AC50 equal or less than 10 uM are considered active; format: functional; settings: read-out: AC50
Chain of Cytochrome P450 2C19 (P33261 whole entry): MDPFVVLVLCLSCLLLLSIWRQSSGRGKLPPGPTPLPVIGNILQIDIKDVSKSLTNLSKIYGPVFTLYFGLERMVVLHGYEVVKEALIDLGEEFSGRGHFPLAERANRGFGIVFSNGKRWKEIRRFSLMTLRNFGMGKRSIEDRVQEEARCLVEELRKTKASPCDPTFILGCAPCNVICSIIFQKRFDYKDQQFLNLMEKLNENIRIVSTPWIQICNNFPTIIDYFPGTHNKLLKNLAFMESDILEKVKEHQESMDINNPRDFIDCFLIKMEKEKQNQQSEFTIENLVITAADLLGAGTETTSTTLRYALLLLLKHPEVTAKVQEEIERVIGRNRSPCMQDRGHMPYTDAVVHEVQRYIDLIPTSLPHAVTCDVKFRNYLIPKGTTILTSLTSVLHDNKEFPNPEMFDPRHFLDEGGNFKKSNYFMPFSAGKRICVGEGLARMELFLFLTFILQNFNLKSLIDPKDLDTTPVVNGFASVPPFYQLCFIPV

Cytochrome P450 2C9 = Cytochrome P450 2C9 (Homo sapiens, UniProt P11712)
Chain of Cytochrome P450 2C9 (P11712 whole entry): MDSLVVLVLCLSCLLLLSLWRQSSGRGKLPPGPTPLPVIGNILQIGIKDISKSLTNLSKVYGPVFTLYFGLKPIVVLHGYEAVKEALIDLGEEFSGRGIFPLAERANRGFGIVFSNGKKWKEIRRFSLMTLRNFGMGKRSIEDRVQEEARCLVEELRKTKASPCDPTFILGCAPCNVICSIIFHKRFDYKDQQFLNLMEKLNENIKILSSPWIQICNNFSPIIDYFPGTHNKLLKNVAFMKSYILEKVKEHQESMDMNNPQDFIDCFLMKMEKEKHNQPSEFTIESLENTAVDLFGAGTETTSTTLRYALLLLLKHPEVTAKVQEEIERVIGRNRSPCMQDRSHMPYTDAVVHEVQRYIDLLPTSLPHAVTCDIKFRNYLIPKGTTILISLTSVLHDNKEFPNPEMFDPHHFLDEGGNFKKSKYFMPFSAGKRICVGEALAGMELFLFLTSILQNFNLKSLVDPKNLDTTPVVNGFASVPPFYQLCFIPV

Cytochrome P450 2D6 = Cytochrome P450 2D6 (Homo sapiens, UniProt P10635);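 note: CYP2D6 member of a cytochrome P450 panel assay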
Chain of Cytochrome P450 2D6 (P10635 whole entry): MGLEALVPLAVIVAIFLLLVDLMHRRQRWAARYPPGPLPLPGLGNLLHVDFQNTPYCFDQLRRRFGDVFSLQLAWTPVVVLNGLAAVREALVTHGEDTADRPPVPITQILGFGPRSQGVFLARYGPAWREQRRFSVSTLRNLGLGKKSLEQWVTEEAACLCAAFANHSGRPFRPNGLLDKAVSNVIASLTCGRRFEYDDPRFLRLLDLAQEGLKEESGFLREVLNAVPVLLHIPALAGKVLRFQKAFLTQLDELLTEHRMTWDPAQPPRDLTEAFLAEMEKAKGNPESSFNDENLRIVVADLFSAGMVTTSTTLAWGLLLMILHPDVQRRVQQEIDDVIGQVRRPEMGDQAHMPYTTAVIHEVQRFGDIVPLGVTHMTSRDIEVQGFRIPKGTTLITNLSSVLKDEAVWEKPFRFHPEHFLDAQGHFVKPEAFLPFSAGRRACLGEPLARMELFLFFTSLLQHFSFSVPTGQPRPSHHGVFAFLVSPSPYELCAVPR

[9] = Trypanosoma cruzi growth suppression in host cells – NIH3T3 host cells, beta-gal luminescence, confirmation (AID 2044); format: functional, cell-based;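 note: intracellular parasites grown in NIH/3T3 mouse fibroblasts as host cells; luminescent beta-galactosidase reporter signal from transgenic T. cruzi replicating inside host cells; inhibitors lower the luminescence signal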
[10] = NIH3T3 cell viability loss – ATP luminescence, mouse fibroblasts, counter-screen, dose response (AID 2010); format: functional, cell-based;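 note: cells exposed to compound for about 90 hours before reading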
Protein RecA = biological target: T2, Protein RecA (Mycobacterium tuberculosis, UniProt P9WHJ3); assay: Fluorescence Cell-Free Homogeneous Dose Retest to Identify Inhibitors of RecA-Intein Splicing Activity. [Related pubchem assays (depositor defined):AID2097, AID2223, AID489010, AID492950]; format: functional
T2 sequence (P9WHJ3 whole entry): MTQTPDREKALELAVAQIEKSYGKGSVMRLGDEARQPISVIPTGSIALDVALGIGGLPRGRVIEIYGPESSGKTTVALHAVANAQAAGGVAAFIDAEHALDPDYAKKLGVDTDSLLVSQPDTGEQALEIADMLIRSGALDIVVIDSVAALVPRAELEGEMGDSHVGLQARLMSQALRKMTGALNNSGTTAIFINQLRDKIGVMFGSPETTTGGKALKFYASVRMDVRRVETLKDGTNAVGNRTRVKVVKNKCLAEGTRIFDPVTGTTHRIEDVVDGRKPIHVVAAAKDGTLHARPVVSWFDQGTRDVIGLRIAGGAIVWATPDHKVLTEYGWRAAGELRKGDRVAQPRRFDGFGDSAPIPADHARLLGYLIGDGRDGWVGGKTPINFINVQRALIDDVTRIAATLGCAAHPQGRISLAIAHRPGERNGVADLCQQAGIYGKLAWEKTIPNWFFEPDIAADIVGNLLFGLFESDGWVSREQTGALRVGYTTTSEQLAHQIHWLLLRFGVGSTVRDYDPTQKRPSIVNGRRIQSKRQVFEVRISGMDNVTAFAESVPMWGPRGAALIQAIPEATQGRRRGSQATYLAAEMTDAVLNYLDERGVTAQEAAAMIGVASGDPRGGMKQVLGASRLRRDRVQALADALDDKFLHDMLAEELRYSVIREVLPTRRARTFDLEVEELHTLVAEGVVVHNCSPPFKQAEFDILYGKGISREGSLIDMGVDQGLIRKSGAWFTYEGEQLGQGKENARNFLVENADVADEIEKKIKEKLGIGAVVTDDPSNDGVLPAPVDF

[11] = biological target: T3, Replicative DNA helicase DnaB (Mycobacterium tuberculosis, UniProt P9WMR3); assay: DnaB intein splicing inhibitors, dose response, biochemical, cell-free fluorescence (AID 449749); format: functional
T3 sequence (P9WMR3 whole entry): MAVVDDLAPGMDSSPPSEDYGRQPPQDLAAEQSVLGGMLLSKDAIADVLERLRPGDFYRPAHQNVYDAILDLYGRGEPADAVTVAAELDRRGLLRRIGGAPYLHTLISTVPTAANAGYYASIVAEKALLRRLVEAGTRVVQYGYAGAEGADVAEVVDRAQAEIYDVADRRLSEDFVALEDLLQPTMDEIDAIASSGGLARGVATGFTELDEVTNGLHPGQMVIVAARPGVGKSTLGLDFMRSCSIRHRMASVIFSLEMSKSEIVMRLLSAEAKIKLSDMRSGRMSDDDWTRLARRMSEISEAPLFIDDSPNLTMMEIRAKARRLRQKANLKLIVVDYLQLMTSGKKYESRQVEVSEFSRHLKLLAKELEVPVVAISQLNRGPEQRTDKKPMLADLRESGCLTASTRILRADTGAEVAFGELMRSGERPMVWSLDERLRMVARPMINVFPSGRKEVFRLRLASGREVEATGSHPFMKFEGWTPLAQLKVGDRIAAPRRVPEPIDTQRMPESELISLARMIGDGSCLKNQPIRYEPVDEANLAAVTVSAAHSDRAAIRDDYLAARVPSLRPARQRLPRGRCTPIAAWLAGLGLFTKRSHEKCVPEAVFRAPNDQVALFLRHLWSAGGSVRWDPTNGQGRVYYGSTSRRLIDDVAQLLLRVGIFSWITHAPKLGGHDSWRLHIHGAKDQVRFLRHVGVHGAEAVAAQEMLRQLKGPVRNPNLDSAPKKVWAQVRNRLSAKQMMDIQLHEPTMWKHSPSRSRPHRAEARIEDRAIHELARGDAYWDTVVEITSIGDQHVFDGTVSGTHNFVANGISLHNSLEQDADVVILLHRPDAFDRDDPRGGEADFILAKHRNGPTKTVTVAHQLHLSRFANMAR

[12] = biological target: T4, RNA-binding protein pos-1 (Caenorhabditis elegans, UniProt G5EF15); assay: disruptors of C. elegans POS-1 RNA interaction – biochemical, fluorescence polarization, dose response (AID 1964);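 note: purified POS-1 fused to maltose binding protein made in E. coli; potency of compounds blocking POS-1 binding to fluorescent RNA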
T4 sequence (G5EF15 whole entry): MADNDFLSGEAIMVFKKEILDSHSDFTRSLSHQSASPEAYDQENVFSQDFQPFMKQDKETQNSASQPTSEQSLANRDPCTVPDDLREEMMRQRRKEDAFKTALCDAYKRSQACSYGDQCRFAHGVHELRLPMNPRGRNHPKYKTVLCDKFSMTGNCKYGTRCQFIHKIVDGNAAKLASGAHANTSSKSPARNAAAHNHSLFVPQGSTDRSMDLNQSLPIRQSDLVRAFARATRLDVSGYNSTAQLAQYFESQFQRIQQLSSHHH

[13] = biological target: T5, Zinc finger protein mex-5 (Caenorhabditis elegans, UniProt Q9XUB2); assay: potency of MEX-5 RNA-binding blockers – biochemical, C. elegans, fluorescence polarization, dose response (AID 1960)
T5 sequence (Q9XUB2 whole entry): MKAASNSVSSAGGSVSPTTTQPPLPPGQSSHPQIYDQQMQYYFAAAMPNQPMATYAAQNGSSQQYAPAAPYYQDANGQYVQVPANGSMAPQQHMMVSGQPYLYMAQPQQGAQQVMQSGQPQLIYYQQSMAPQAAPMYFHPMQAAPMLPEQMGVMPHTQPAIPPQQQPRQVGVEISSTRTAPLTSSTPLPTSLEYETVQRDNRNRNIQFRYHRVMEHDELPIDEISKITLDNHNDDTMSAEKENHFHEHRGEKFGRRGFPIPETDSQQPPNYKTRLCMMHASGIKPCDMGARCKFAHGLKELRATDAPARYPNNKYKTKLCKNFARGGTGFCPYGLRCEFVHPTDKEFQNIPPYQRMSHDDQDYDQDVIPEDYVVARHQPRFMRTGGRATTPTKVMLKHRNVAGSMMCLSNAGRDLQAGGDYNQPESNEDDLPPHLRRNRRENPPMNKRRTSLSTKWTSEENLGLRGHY

| Compound | CC50 [2] | EC50 [6] | EC50 [7] | EC50 [8] | other results |
| --- | --- | --- | --- | --- | --- |
| N=C(NOC(=O)c1ccc(Cl)cc1)c1ccccn1 | 16.4 µM (active) | – | – | – | EC50 [1]: 7.38 µM (active); EC50 [3]: 1.53 µM (active) |
| Cc1cc(C)c2nc(SCCc3ccccc3)nc(C)c2c1 | – | – | – | – | EC50 (Streptococcus): > 150 µM (not active); EC50 (Streptokinase A): 12.5 µM (active); EC50 [4]: 33.4 µM (active) |
| Cc1c(N=C2N=C(NC(=O)c3cccs3)c3ccccc32)c(=O)n(-c2ccccc2)n1C | 18.7 µM (active) | – | – | – | – |
| Cc1ccc2c(CSc3nc4ccccc4c(=O)n3CCCO)cc(=O)oc2c1C | 30.5 µM (active) | – | – | – | – |
| C=CCOc1cccc(/C=C2\C(=O)N(Cc3ccc(C)cc3)C(C)=C2C(=O)OC)c1 | 29.7 µM (active) | – | – | – | AC50 [5]: 5.38 µM (active) |
| Cc1ccc(CNC(=O)C2CCN(S(=O)(=O)c3ccc4c(c3)CC(C)N4C(=O)C3CCC3)CC2)o1 (stereo not given) | – | > 120 µM (not active) | 12.3 µM (active) | 13 µM (active) | – |
| CC(C)c1ccc(NC(=O)C2CCCN(S(=O)(=O)c3ccc4c(c3)C(C)(C)C(=O)N4C)C2)cc1 (stereo not given) | 17.6 µM (active) | – | – | – | – |
| CC(C)CC(=O)Nc1cccc(-c2csc(-c3ccccc3)n2)c1 | 17.9 µM (active) | – | – | – | – |
| Cn1c(SCC(=O)NC2(C#N)CCCCC2)nnc1-c1cccnc1 | – | – | – | – | EC50 (Streptococcus): > 150 µM (not active); EC50 (Streptokinase A): > 150 µM (not active); EC50 [4]: > 150 µM (not active) |
| CCn1c(=O)c(C(=O)NNC(=O)Cc2ccccc2)c(O)c2ccccc21 | – | – | – | – | EC50 (Streptococcus): > 150 µM (not active); EC50 (Streptokinase A): > 150 µM (not active); EC50 [4]: 9.03 µM (active) |
| Cc1ccc(CN=C(N)Nc2nc(C)cc(C)n2)cc1 | – | 9.36 µM (active) | 7.78 µM (active) | > 120 µM (not active) | – |
| Cc1ccc(/C=C/C(=O)c2nc3ccccc3[nH]2)cc1 | 46.1 µM (active) | – | – | – | AC50 (Cytochrome P450 2C19): 0.0158 µM (inconclusive); AC50 (Cytochrome P450 2C9): 7.94 µM (inconclusive); AC50 (Cytochrome P450 2D6): 28.2 µM (inconclusive) |
| Cc1cc(C)n(-c2nc3ccccc3c(=O)n2OCC(=O)OCc2ccccc2)n1 | – | 17.6 µM (active) | > 120 µM (not active) | 19.3 µM (active) | – |
| COc1ccc2c(c1)CCc1cnc(N)nc1-2 | 24.4 µM (active) | – | – | – | – |
| CC(=O)c1ccc(NC2CC(O)C(O)CO2)cc1 (stereo not given) | – | > 120 µM (not active) | 16.1 µM (active) | > 120 µM (not active) | – |
| Cc1ccc(C#CC[N+](C)(C)CC#Cc2ccccc2)cc1 | – | > 120 µM (not active) | > 120 µM (not active) | > 120 µM (not active) | EC50 [9]: 1.92 µM (active); EC50 [10]: > 60 µM (not active) |
| Cc1ccc2c(c1)-c1c(ssc1=S)C(C)(C)N2C(=O)CSc1nncn1C | – | > 120 µM (not active) | > 120 µM (not active) | 46.1 µM (active) | EC50 (Protein RecA): 9.47 µM (active); AC50 [11]: 6.63 µM (active) |
| COCCNC(=O)Nc1ccc2nc(-c3cccs3)c(-c3cccs3)nc2c1 | 33.1 µM (active) | – | – | – | – |
| O=C(c1cccs1)N1N=C(c2ccccc2)CC1c1ccccc1 (stereo not given) | – | – | – | – | EC50 (Streptococcus): 16.2 µM (active); EC50 (Streptokinase A): > 150 µM (not active); EC50 [4]: 6.85 µM (active) |
| COc1ccc(-c2cc(C(=O)N/N=C(\C)c3ccco3)c3ccccc3n2)c(OC)c1 | – | – | – | – | EC50 [12]: > 300 µM (not active); EC50 (Streptococcus): > 150 µM (not active); EC50 (Streptokinase A): > 150 µM (not active); EC50 [4]: > 150 µM (not active); EC50 [13]: > 300 µM (not active) |
| CCCCOC(=O)c1ccc(NC(=S)N2CCN(c3ncc4c(=O)c(C(=O)O)cn(CC)c4n3)CC2)cc1 | – | – | – | – | EC50 (Streptococcus): 2.62 µM (active); EC50 (Streptokinase A): > 150 µM (not active); EC50 [4]: 0.801 µM (active) |
| CCOC(=O)C1=C(CN2CCN(C(=O)c3ccco3)CC2)NC(=O)NC1c1ccccc1 (stereo not given) | – | > 120 µM (not active) | > 120 µM (not active) | 42.2 µM (active) | – |
